Tests used:
[1] = tested on: Puccinia recondita f. sp. tritici; assay: Fungicidal activity against Puccinia recondita f. sp. tritici / wheat / leaf disc preventative (brown rust); format: in vivo; conditions: foliar, 200 ppm in the applied formulation, wheat leaf segments cv. Kanzler, preventative (inoculated 1 day after application), assessed 7 to 9 days after application, read-out: disease control compared to untreated control leaf disks
Summary of the method: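 Wheat cv. Kanzler leaf segments on agar sprayed with formulated compound diluted in water, inoculated with P. recondita spores 1 day later. Incubated at 19C, 75% rh, 12 h light/12 h dark; scored 7 to 9 days after application as percent disease control versus untreated segments. Test rate 200 ppm.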

[2] = tested on: Puccinia recondita f. sp. tritici; assay: Fungicidal activity against Puccinia recondita f. sp. tritici / wheat / leaf disc curative (brown rust); format: in vivo; conditions: foliar, 200 ppm in the applied formulation, wheat leaf segments cv. Kanzler, curative (applied 1 day after inoculation), assessed 6 to 8 days after application, read-out: disease control compared to untreated control leaf disks
Summary of the method: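 Wheat cv. Kanzler leaf segments on agar, spore-inoculated, held dark at 19° C./75% RH; formulated compound in water sprayed 1 day post-inoculation (curative). Incubated 19° C., 75% RH, 12 h light/12 h dark; percent disease control vs untreated scored 6 to 8 days after application.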

Uromyces viciae-fabae = assay: Fungicidal activity against Uromyces viciae-fabae / field bean / leaf disc preventative (faba-bean rust); format: in vivo; conditions: foliar, 288 h, 100 ppm in the applied formulation, field bean leaf discs, preventative (inoculated two hours after application), assessed 12 days after application, read-out: disease control compared to untreated control leaf discs
Experimental: Leaf disks or leaf segments of various plant species are cut from plants grown in a greenhouse. The cut leaf disks or segments are placed in multiwell plates (24-well format) onto water agar. The leaf disks are sprayed with a test solution before (preventative) or after (curative) inoculation. Compounds to be tested are prepared as DMSO solutions (max. 10 mg/ml) which are diluted to the appropriate concentration with 0.025% Tween20 just before spraying. The inoculated leaf disks or segments are incubated under defined conditions (temperature, relative humidity, light, etc.) according to the respective test system. A single evaluation of disease level is carried out 3 to 14 days after inoculation, depending on the pathosystem. Percent disease control relative to the untreated check leaf disks or segments is then calculated. General Examples of Liquid Culture Tests in Well Plates:
Example 5: Fungicidal Activity Against Uromyces viciae-fabae/Field Bean/Leaf Disc Preventative (Faba-Bean Rust)
Field bean leaf discs are placed on water agar in multiwell plates (96-well format) and 10 μl of the formulated test compound diluted in acetone and a spreader pipetted onto the leaf disc. Two hours after application leaf discs are inoculated by spraying a spore suspension on the lower leaf surface. The leaf discs are incubated in a climate cabinet at 22° C. with 18 hour day and 70% relative humidity. The activity of a compound is assessed as percent disease control compared to untreated when an appropriate level of disease damage appears in untreated check leaf disks (12 days after application).
The following compounds at 100 ppm in the applied formulation give at least 80% disease control in this test when compared to untreated control leaf discs under the same conditions, which show extensive disease development.

[3] = tested on: Glomerella laqenarium (Colletotrichum lagenarium); assay: Fungicidal activity against Glomerella lagenarium (Colletotrichum lagenarium) liquid culture / cucumber / preventative (anthracnose); format: cell-based; conditions: Colletotrichum orbiculare; 20 ppm in the applied formulation; liquid culture in PDB, 24° C., 3 to 4 days after application; read-out: disease control compared to untreated control (inhibition of growth measured photometrically)
Summary of the method: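 Cryostored conidia mixed into potato dextrose broth and added to test compound (from DMSO solution) in microtiter plates. Incubated at 24 °C; growth inhibition read photometrically 3 to 4 days after application, as percent activity versus untreated check.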

Phakopsora pachyrhizi = assay: Fungicidal activity against Phakopsora pachyrhizi / soybean / leaf disc preventative (Asian soybean rust); format: in vivo; conditions: foliar, 200 ppm in the applied formulation, soybean leaf disks, preventative (inoculated one day after application), assessed 12 to 14 days after application, read-out: disease control compared to untreated control leaf disks
Summary of the method: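 Soybean leaf discs on water agar sprayed with formulated compound diluted in water; spore suspension sprayed on lower leaf surface one day later. Incubated 24-36 h dark at 20° C, 75% rh, then 20° C, 12 h light/day, 75% rh. Percent disease control versus untreated scored 12 to 14 days after application.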

CN(C(=O)c1ccc(-c2noc(C(F)(F)F)n2)cc1)C1CCOC1 (stereo not drawn) [Compound 1a.7, N-methyl-N-tetrahydrofuran-3-yl-4-[5-(trifluoromethyl)-1,2,4-oxadiazol-3-yl]benzamide]
≥ 80%: pest or weed control at 200 ppm [1] | pest or weed control at 200 ppm [2] | pest or weed control at 100 ppm (Uromyces viciae-fabae)

O=C(Nc1nc(Br)n[nH]1)c1ccc(-c2noc(C(F)(F)F)n2)cc1F [Compound 5b.10, N-(3-bromo-1H-1,2,4-triazol-5-yl)-2-fluoro-4-[5-(trifluoromethyl)-1,2,4-oxadiazol-3-yl]benzamide]
≥ 80%: pest or weed control at 200 ppm [1] | inhibition at 20 ppm [3] | pest or weed control at 100 ppm (Uromyces viciae-fabae)

C#CC1(NC(=O)c2ccc(-c3noc(C(F)(F)F)n3)cc2F)CCCCC1 [Compound 2b.2, N-(1-ethynylcyclohexyl)-2-fluoro-4-[5-(trifluoromethyl)-1,2,4-oxadiazol-3-yl]benzamide]
≥ 80%: pest or weed control at 200 ppm (Phakopsora pachyrhizi) | inhibition at 20 ppm [3] | pest or weed control at 100 ppm (Uromyces viciae-fabae)

O=C(NC1CCCC1(F)F)c1ccc(-c2noc(C(F)(F)F)n2)cc1F (stereo not drawn) [Compound 2b.17, N-(2,2-difluorocyclopentyl)-2-fluoro-4-[5-(trifluoromethyl)-1,2,4-oxadiazol-3-yl]benzamide]
≥ 80%: pest or weed control at 200 ppm [1] | pest or weed control at 200 ppm [2] | pest or weed control at 200 ppm (Phakopsora pachyrhizi) | pest or weed control at 100 ppm (Uromyces viciae-fabae)

O=C(NCC1COCCO1)c1ccc(-c2noc(C(F)(F)F)n2)cc1Cl (stereo not drawn) [Compound 1b.13, 2-chloro-N-(1,4-dioxan-2-ylmethyl)-4-[5-(trifluoromethyl)-1,2,4-oxadiazol-3-yl]benzamide]
≥ 80%: pest or weed control at 200 ppm [1] | pest or weed control at 200 ppm [2] | pest or weed control at 100 ppm (Uromyces viciae-fabae)

CC(NC(=O)c1ccc(-c2noc(C(F)(F)F)n2)cc1F)C1(C)OCCO1 (stereo not drawn) [Compound 1b.12, 2-fluoro-N-[1-(2-methyl-1,3-dioxolan-2-yl)ethyl]-4-[5-(trifluoromethyl)-1,2,4-oxadiazol-3-yl]benzamide]
≥ 80%: pest or weed control at 200 ppm [2] | pest or weed control at 100 ppm (Uromyces viciae-fabae)

CN(C(=O)c1ccc(-c2noc(C(F)(F)F)n2)cc1)C1CCSC1 (stereo not drawn) [Compound 1a.9, N-methyl-N-tetra-hydrothiophen-3-yl-4-[5-(trifluoromethyl)-1,2,4-oxadiazol-3-yl]benzamide]
≥ 80%: pest or weed control at 200 ppm [2] | pest or weed control at 100 ppm (Uromyces viciae-fabae)

O=C(NCCc1cccs1)c1ccc(-c2noc(C(F)(F)F)n2)cc1Cl [Compound 5b.18, 2-chloro-N-[2-(2-thienyl)ethyl]-4-[5-(trifluoromethyl)-1,2,4-oxadiazol-3-yl]benzamide]
≥ 80%: pest or weed control at 200 ppm [1] | inhibition at 20 ppm [3] | pest or weed control at 100 ppm (Uromyces viciae-fabae)

O=C(NCCc1cccs1)c1ccc(-c2noc(C(F)(F)F)n2)cc1 [Compound 5a.7, N-[2-(2-thienyl)ethyl]-4-[5-(trifluoromethyl)-1,2,4-oxadiazol-3-yl]benzamide]
≥ 80%: pest or weed control at 200 ppm [1] | pest or weed control at 200 ppm (Phakopsora pachyrhizi) | inhibition at 20 ppm [3] | pest or weed control at 100 ppm (Uromyces viciae-fabae)

O=C(NC1(C2CC2)CC1)c1ccc(-c2noc(C(F)(F)F)n2)cc1F [Compound 2b.6, N-(1-cyclopropylcyclo-propyl)-2-fluoro-4-[5-(trifluoromethyl)-1,2,4-oxadiazol-3-yl]benzamide]
≥ 80%: pest or weed control at 200 ppm (Phakopsora pachyrhizi) | inhibition at 20 ppm [3] | pest or weed control at 100 ppm (Uromyces viciae-fabae)

O=C(NC1(Cc2ccc(Cl)cc2)CC1)c1ccc(-c2noc(C(F)(F)F)n2)cc1 [Compound 2a.7, N-[1-[(4-chlorophenyl)methyl]cyclopropyl]-4-[5-(trifluoromethyl)-1,2,4-oxadiazol-3-yl]benzamide]
≥ 80%: pest or weed control at 200 ppm [1] | pest or weed control at 200 ppm (Phakopsora pachyrhizi) | pest or weed control at 100 ppm (Uromyces viciae-fabae)

O=C(NCCCCc1ccccc1)c1ccc(-c2noc(C(F)(F)F)n2)cc1F [Compound 4b.10, 2-fluoro-N-(4-phenylbutyl)-4-[5-(trifluoromethyl)-1,2,4-oxadiazol-3-yl]benzamide]
≥ 80%: pest or weed control at 200 ppm (Phakopsora pachyrhizi) | inhibition at 20 ppm [3] | pest or weed control at 100 ppm (Uromyces viciae-fabae)

CCOc1ccc(CN(C(=O)c2ccc(-c3noc(C(F)(F)F)n3)cc2F)C(C)C)cc1OCC [Compound 4b.11, N-[(3,4-diethoxyphenyl)methyl]-2-fluoro-N-isopropyl-4-[5-(trifluoromethyl)-1,2,4-oxadiazol-3-yl]benzamide]
≥ 80%: pest or weed control at 200 ppm [1] | inhibition at 20 ppm [3] | pest or weed control at 100 ppm (Uromyces viciae-fabae)

CCN1CCC[C@@H]1CNC(=O)c1ccc(-c2noc(C(F)(F)F)n2)cc1F [Compound 1b.1, N-[[(2R)-1-ethylpyrrolidin-2-yl]methyl]-2-fluoro-4-[5-(trifluoromethyl)-1,2,4-oxadiazol-3-yl]benzamide]
≥ 80%: pest or weed control at 200 ppm [1] | pest or weed control at 200 ppm (Phakopsora pachyrhizi) | pest or weed control at 100 ppm (Uromyces viciae-fabae)

CC1CCC(NC(=O)c2ccc(-c3noc(C(F)(F)F)n3)cc2)CC1 (stereo not drawn) [Compound 2a.6, N-(4-methylcyclohexyl)-4-[5-(trifluoromethyl)-1,2,4-oxadiazol-3-yl]benzamide]
≥ 80%: pest or weed control at 200 ppm [1] | pest or weed control at 200 ppm (Phakopsora pachyrhizi) | pest or weed control at 100 ppm (Uromyces viciae-fabae)

O=C(Nc1cn[nH]c1)c1ccc(-c2noc(C(F)(F)F)n2)cc1F [Compound 5b.7, 2-fluoro-N-(1H-pyrazol-4-yl)-4-[5-(trifluoromethyl)-1,2,4-oxadiazol-3-yl]benzamide]
≥ 80%: pest or weed control at 200 ppm [1] | pest or weed control at 200 ppm (Phakopsora pachyrhizi) | inhibition at 20 ppm [3] | pest or weed control at 100 ppm (Uromyces viciae-fabae)

CN(C(=O)c1ccc(-c2noc(C(F)(F)F)n2)cc1F)C1CCOC1 (stereo not drawn) [Compound 1b.7, 2-fluoro-N-methyl-N-tetrahydrofuran-3-yl-4-[5-(trifluoromethyl)-1,2,4-oxadiazol-3-yl]benzamide]
≥ 80%: pest or weed control at 200 ppm [2] | pest or weed control at 100 ppm (Uromyces viciae-fabae)

COC(=O)CNC(=O)c1ccc(-c2noc(C(F)(F)F)n2)cc1 [Compound 3a.4, methyl 2-[[4-[5-(trifluoromethyl)-1,2,4-oxadiazol-3-yl]benzoyl]amino]acetate]
≥ 80%: pest or weed control at 200 ppm [1] | pest or weed control at 200 ppm (Phakopsora pachyrhizi) | inhibition at 20 ppm [3] | pest or weed control at 100 ppm (Uromyces viciae-fabae)

O=C(NCC1CCOC1)c1ccc(-c2noc(C(F)(F)F)n2)cc1Cl (stereo not drawn) [Compound 1b.14, 2-chloro-N-(tetrahydrofuran-3-ylmethyl)-4-[5-(trifluoromethyl)-1,2,4-oxadiazol-3-yl]benzamide]
≥ 80%: pest or weed control at 200 ppm [1] | pest or weed control at 200 ppm (Phakopsora pachyrhizi) | inhibition at 20 ppm [3] | pest or weed control at 100 ppm (Uromyces viciae-fabae)

CN(CC1CCCCO1)C(=O)c1ccc(-c2noc(C(F)(F)F)n2)cc1F (stereo not drawn) [Compound 1b.10, 2-fluoro-N-methyl-N-(tetrahydropyran-2-ylmethyl)-4-[5-(trifluoromethyl)-1,2,4-oxadiazol-3-yl]benzamide]
≥ 80%: pest or weed control at 200 ppm [2] | pest or weed control at 100 ppm (Uromyces viciae-fabae)

COC(=O)C1(NC(=O)c2ccc(-c3noc(C(F)(F)F)n3)cc2)CCCN(OC)C1 (stereo not drawn) [Compound 1a.8, methyl 1-methoxy-3-[[4-[5-(trifluoromethyl)-1,2,4-oxadiazol-3-yl]benzoyl]amino]piperidine-3-carboxylate]
≥ 80%: pest or weed control at 200 ppm [2] | pest or weed control at 100 ppm (Uromyces viciae-fabae)
